# Laboratory results reported in patent US20260083865A1, “PROSTATE SPECIFIC MEMBRANE ANTIGEN (PSMA) LIGANDS AND USE THEREOF” (priority 2022, published 2026).
# Where two headings read alike, the source gives them in different places. Numbered stars: 1 amine (or outer) side, 2 acyl side, 3 side chain; on linkers, the order of the positions; unused ones are H or OH. Bridge positions count the residues as written; N and C are the ends. Square brackets hold non-standard residues; d marks the D form. Peptide text beside a SMILES is read from it. * marks the point of attachment. TtdsdLys(DOTA)NH2 = NC(=O)[C@@H](CCCCNC(=O)CN1CCN(CC(=O)O)CCN(CC(=O)O)CCN(CC(=O)O)CC1)NC(=O)CCC(=O)NCCCOCCOCCOCCCN*; DOTA = O=C(O)CN1CCN(CC(=O)O)CCN(CC(=O)*)CCN(CC(=O)O)CC1; Phe(3-CF3) = N[C@@H](Cc1cccc(C(F)(F)F)c1)C(=O)O; Phe(4-Cl) = N[C@@H](Cc1ccc(Cl)cc1)C(=O)O; Arg(Me) = CNC(=N)NCCC[C@H](N)C(=O)O; 4Pal = N[C@@H](Cc1ccncc1)C(=O)O; X1 = O=C(CC1CCN([*:1])CC1)[*:2]; Cit = NC(=O)NCCC[C@H](N)C(=O)O; Lys(Me) = CNCCCC[C@H](N)C(=O)O; Tle = CC(C)(C)[C@H](N)C(=O)O; Pyridin(2-yl) = c1ccc(*)nc1; 4Amb = NCc1ccc(C(=O)O)cc1; Isovaleryl = CC(C)CC(=O)*; Orn = NCCC[C@H](N)C(=O)O; Aib = CC(C)(N)C(=O)O; CO = O=C([*:1])[*:2]; βAla = NCCC(=O)O; NHBu = CCCCN*
# Assays:
# [1] = biological target: T1, Fc-fusion protein of human PSMA (hPSMA-Fc) (Homo sapiens, UniProt Q04609); test: Surface plasmon resonance assay (Biacore T200, single cycle kinetic); format: binding; conditions: read-out: pKD CAT (converted)
# T1 construct: purchased Acro Biosystems PSA-H5264
# T1 sequence (Q04609 44-750 limits assumed): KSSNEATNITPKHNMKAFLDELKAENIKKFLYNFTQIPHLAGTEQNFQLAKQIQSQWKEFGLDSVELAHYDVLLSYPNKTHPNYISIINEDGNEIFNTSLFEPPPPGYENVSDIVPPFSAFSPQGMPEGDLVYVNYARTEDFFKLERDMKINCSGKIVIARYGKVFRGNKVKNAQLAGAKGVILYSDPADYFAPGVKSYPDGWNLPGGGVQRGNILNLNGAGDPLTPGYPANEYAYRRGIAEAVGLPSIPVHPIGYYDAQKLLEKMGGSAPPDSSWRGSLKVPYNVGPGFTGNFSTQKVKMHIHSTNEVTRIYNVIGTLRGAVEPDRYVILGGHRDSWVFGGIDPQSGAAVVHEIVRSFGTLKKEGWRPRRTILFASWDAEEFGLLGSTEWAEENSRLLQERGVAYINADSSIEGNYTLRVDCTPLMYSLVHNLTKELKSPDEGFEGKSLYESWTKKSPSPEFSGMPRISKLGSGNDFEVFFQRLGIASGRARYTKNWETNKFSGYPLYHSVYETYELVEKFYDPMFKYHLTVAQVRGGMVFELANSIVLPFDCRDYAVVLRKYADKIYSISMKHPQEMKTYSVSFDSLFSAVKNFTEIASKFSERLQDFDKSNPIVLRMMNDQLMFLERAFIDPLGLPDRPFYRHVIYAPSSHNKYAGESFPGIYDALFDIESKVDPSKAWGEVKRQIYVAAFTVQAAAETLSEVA
# Summary of the method: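 hPSMA-Fc was captured (~1000 RU) on an Fc-binding-peptide CM5 chip, and compounds were run in single cycle kinetic mode at 25° C in HBST with 0.1% DMSO. Double-blank-corrected sensorgrams were fitted to a 1:1 Langmuir model to give KD, reported as pKD.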
# [2] = biological target: T2, PSMA-expressing C4-2 cells (Homo sapiens, UniProt Q04609); test: FACS binding assay (competition with 50 nM PSM-0183); conditions: read-out: pIC50 [C4-2] CAT (converted)
# T2 construct: PSMA-expressing C4-2 cells (ATCC, Cat. No. CRL-3314) were cultured in RPMI-1640; host or cells: C4-2 cells
# T2 sequence (Q04609 whole entry): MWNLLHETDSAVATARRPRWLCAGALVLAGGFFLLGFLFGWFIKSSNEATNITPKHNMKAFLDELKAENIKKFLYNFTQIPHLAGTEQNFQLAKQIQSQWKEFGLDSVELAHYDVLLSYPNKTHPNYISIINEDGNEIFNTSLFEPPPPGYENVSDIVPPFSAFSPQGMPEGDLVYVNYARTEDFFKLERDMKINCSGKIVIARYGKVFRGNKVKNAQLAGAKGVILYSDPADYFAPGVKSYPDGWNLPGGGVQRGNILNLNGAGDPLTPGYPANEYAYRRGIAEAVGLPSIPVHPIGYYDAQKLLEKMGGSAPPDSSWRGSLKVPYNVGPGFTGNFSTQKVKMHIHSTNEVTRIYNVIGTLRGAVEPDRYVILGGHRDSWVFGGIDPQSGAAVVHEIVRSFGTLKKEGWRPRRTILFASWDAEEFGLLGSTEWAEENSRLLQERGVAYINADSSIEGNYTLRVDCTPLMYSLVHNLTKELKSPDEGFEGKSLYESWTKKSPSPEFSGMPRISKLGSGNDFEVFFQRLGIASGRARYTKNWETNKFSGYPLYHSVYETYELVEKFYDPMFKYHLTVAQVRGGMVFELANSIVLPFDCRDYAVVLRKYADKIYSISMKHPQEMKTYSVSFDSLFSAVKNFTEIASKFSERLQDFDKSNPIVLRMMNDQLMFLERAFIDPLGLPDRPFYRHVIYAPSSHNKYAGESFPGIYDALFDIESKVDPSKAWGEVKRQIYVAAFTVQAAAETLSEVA
# Summary of the method: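 C4-2 cells were incubated 1 h at 4 °C with 50 nM AF488-labelled peptide PSM-0183 plus increasing test compound concentrations, then washed twice in ice-cold buffer. Median fluorescence in the AF488 channel was read by flow cytometry. IC50/pIC50 was derived by 4PL fitting of MFI versus concentration.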
# [3] = pKD category for PSMA SPR activity assay, hPSMA-Fc, 25° C.
# [4] = pIC50 category of FACS binding, C4-2 cells
SMILES,"Kd [1, 3]","IC50 [2, 4]",further results
"CCCCNC(=O)N[C@H](C(=O)NC(C)(C)C(=O)N[C@@H](Cc1ccccc1)C(=O)N[C@H]1CSSC[C@@H](C(=O)N[C@H](C(=O)N[C@H](C(=O)N2CCC(CC(=O)N[C@H](CCCCNC(=O)CN3CCN(CC(=O)O)CCN(CC(=O)O)CCN(CC(=O)O)CC3)C(N)=O)CC2)[C@@H](C)O)C(C)(C)C)NC(=O)[C@H](CC(N)=O)NC(=O)C(C)(C)NC(=O)[C@H](CCCNc2ccccn2)NC(=O)[C@H](CCCCN)NC1=O)[C@@H](C)O [PSM-0258, nBuCAyl-Thr-Aib-Phe-[Cys-Lys-Opy-Aib-Asn-Cys]-Tle-Thr-Cmp-lys(DOTA)-NH] ({NHBu-CO}-T[Aib]FCK[Orn](Pyridin(2-yl))[Aib]NC[Tle]T[X1][dK](DOTA)-NH2; disulfide 4-9)",,,"Kd ([1]; SPR, hPSMA-Fc, single cycle kinetic, 25° C., category): 126 to 501 nM; IC50 ([2]; FACS binding, C4-2 cells, competition with 50 nM PSM-0183, category): 200 to 1260 nM"
"CC(=O)N[C@H](C(=O)NC(C)(C)C(=O)N[C@@H](Cc1ccc(Cl)cc1)C(=O)N[C@H]1CSSC[C@@H](C(=O)N[C@H](CC(C)C)C(=O)N[C@H](C(N)=O)[C@@H](C)O)NC(=O)[C@H](CC(N)=O)NC(=O)C(C)(C)NC(=O)[C@H](CCCNC(N)=O)NC(=O)[C@H](CCCCN)NC1=O)[C@@H](C)O [PSM-0421, Ac-Thr-Aib-Pcf-[Cys-Lys-Cit-Aib-Asn-Cys]-leu-Thr-NH2] (Ac-T[Aib][Phe(4-Cl)]CK[Cit][Aib]NC[dL]T-NH2; disulfide 4-9)",126 to 501 nM,200 to 1260 nM,
"CC(C)CC(=O)NC(C)(C)C(=O)N[C@@H](Cc1ccccc1)C(=O)N[C@H]1CSSC[C@@H](C(=O)N[C@H](C(=O)N[C@H](C(N)=O)[C@@H](C)O)C(C)(C)C)NC(=O)[C@H](CC(N)=O)NC(=O)C(C)(C)NC(=O)[C@H](CCCNC(=N)N)NC(=O)[C@H](CCCCN)NC1=O [PSM-0450, Iva-Aib-Phe-[Cys-Lys-Arg-Aib-Asn-Cys]-Tle-Thr-NH2] (Isovaleryl-[Aib]FCKR[Aib]NC[Tle]T-NH2; disulfide 3-8)",< 12.6 nM,< 200 nM,
"CC(C)(NC(=O)c1ccc(CNC(=O)CN2CCN(CC(=O)O)CCN(CC(=O)O)CCN(CC(=O)O)CC2)cc1)C(=O)N[C@@H](Cc1ccccc1)C(=O)N[C@H]1CSSC[C@@H](C(=O)N[C@H](C(=O)NCCC(N)=O)C(C)(C)C)NC(=O)[C@H](CC(N)=O)NC(=O)C(C)(C)NC(=O)[C@H](CCCNC(=N)N)NC(=O)[C@H](CCCCN)NC1=O [PSM-0574, DOTA-Pamb-Aib-Phe-[Cys-Lys-Arg-Aib-Asn-Cys]-Tle-Bal-NH2] ({DOTA-4Amb}-[Aib]FCKR[Aib]NC[Tle][βAla]-NH2; disulfide 3-8)",,,"Kd ([1]; PSMA SPR assay, category): 12.6 to 126 nM; IC50 ([2]; FACS binding, C4-2 cells, category): < 200 nM"
"CC(=O)N[C@@H](C)C(=O)N[C@@H](Cc1ccccc1)C(=O)N[C@H]1CSSC[C@@H](C(=O)N[C@@H](CC(C)C)C(=O)N[C@H](C(=O)N[C@@H](CC(=O)O)C(=O)NCCCOCCOCCOCCCNC(=O)CCC(=O)N[C@H](CCCCNC(=O)CN2CCN(CC(=O)O)CCN(CC(=O)O)CCN(CC(=O)O)CC2)C(N)=O)[C@@H](C)O)NC(=O)[C@H](CC(N)=O)NC(=O)[C@H](C)NC(=O)[C@H](CCCNC(=N)N)NC(=O)[C@H](CCCCN)NC1=O [PSM-0299, Ac-Ala-Phe-[Cys-Lys-Arg-Ala-Asn-Cys]-Leu-Thr-Asp-Ttds-lys(DOTA)-NH2] (Ac-AFCKRANCLTD-{TtdsdLys(DOTA)NH2}; disulfide 3-8)",,,"Kd ([1]; PSMA SPR assay, hPSMA-Fc, 25° C., pKD category): 12.6 to 126 nM; IC50 ([2]; FACS binding, PSMA-expressing C4-2 cells, pIC50 category): 1260 to 3160 nM"

# Now from value to molecule, other results behind:
"Kd [1, 3]","IC50 [2, 4]",SMILES,further results
126 to 501 nM,1260 to 3160 nM,"C[C@@H](O)[C@H](NC(=O)[C@@H](NC(=O)[C@@H]1CSSC[C@H](NC(=O)[C@H](Cc2ccncc2)NC(=O)C(C)(C)NC(=O)[C@@H](NC(=O)CC2CCN(C(=O)CN3CCN(CC(=O)O)CCN(CC(=O)O)CCN(CC(=O)O)CC3)CC2)[C@@H](C)O)C(=O)N[C@@H](CCCCN)C(=O)N[C@@H](CCCNC(=N)N)C(=O)NC(C)(C)C(=O)N[C@@H](CC(N)=O)C(=O)N1)C(C)(C)C)C(N)=O [PSM-0454, DOTA-Cmp-Thr-Aib-Ppa-[Cys-Lys-Cit-Aib-Asn-Cys]-Tle-Thr-NH2] ({DOTA}-[X1]T[Aib][4Pal]CKR[Aib]NC[Tle]T-NH2; disulfide 5-10)",
< 12.6 nM,< 200 nM,"CNCCCC[C@@H]1NC(=O)[C@@H](NC(=O)[C@H](Cc2cccc(C(F)(F)F)c2)NC(=O)C(C)(C)NC(=O)[C@@H](NC(=O)CC2CCN(C(=O)CN3CCN(CC(=O)O)CCN(CC(=O)O)CCN(CC(=O)O)CC3)CC2)[C@@H](C)O)CSSC[C@@H](C(=O)N[C@H](C(N)=O)C(C)(C)C)NC(=O)[C@H](CC(N)=O)NC(=O)C(C)(C)NC(=O)[C@H](CCCNC(=N)NC)NC1=O [PSM-0396, DOTA-Cmp-Thr-Aib-Mtf-[Cys-Lys(Me)-Arg(Me)-Aib-Asn-Cys]-Tle-NH2] ({DOTA}-[X1]T[Aib][Phe(3-CF3)]C[Lys(Me)][Arg(Me)][Aib]NC[Tle]-NH2; disulfide 5-10)",
